Measured values as given in patent publication US7763615B2, “Ecteinascidin analogs for use as antitumour agents” (priority 2001, dated 2010).

Tests used:
Assay in all cases: cells
Type in all cases: cell-based
A549 = conditions: Homo sapiens, A549, 48 h, A549, 48 hours exposure, SRB; for GI50: read-out: GI50; for CC50: read-out: LC50 (the source's name); for IC (TGI): read-out: TGI
In short: (§1)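 For 48 hours, cells seeded at 5×10^3 per well were kept in contact with samples spanning 10 to 10^−8 μg/ml after an 18-hour attachment period. Viable biomass was then estimated colorimetrically with sulphorhodamine B at 490 nm.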

DU145 = conditions: Homo sapiens, DU145, 48 hours exposure, SRB; for GI50 / IC (TGI): DU-145, 48 h; for CC50: DU-145, read-out: LC50 (the source's name)
In short: as §1

HELA-APL = conditions: for TGI / CC50: HELA-APL, 48 hours exposure, SRB; for GI50 / CC50: Homo sapiens; for GI50: 48 h; for CC50: read-out: LC50 (the source's name)
In short: as §1

HELA = conditions: HELA, 48 hours exposure, SRB; for GI50 / CC50: Homo sapiens; for CC50: read-out: LC50 (the source's name)
In short: as §1

HT29 = conditions: Homo sapiens, HT-29, 48 h, HT29, 48 hours exposure, SRB; for CC50: read-out: LC50 (the source's name)
In short: as §1

IGROV-ET = conditions: Homo sapiens, IGROV-ET, 48 hours exposure, SRB; for GI50 / IC (TGI): 48 h; for CC50: read-out: LC50 (the source's name)
In short: as §1

IGROV = conditions: Homo sapiens, 48 hours exposure, SRB; for GI50 / IC (TGI): 48 h; for CC50: read-out: LC50 (the source's name)
In short: as §1

K562 = conditions: Homo sapiens, K562, 48 hours exposure, SRB; for GI50 / IC (TGI): K562, 48 h; for CC50: read-out: LC50 (the source's name)
In short: as §1

LNCAP = conditions: Homo sapiens, 48 hours exposure, SRB; for GI50 / IC (TGI): LNCaP, 48 h; for CC50: LNCAP, read-out: LC50 (the source's name)
In short: as §1

LOVO-DOX = conditions: Homo sapiens, LOVO-DOX, 48 hours exposure, SRB; for GI50 / IC (TGI): 48 h; for CC50: read-out: LC50 (the source's name)
In short: as §1

LOVO = conditions: Homo sapiens, 48 hours exposure, SRB; for GI50 / IC (TGI): LoVo, 48 h; for CC50: LOVO, read-out: LC50 (the source's name)
In short: as §1

MEL-28 = conditions: Homo sapiens, MEL-28, 48 hours exposure, SRB; for GI50 / IC (TGI): SK-MEL-28, 48 h; for CC50: SK-MEL-28, read-out: LC50 (the source's name)
In short: as §1

PANC-1 = conditions: Homo sapiens, PANC-1, 48 hours exposure, SRB; for GI50 / IC (TGI): PANC-1, 48 h; for CC50: read-out: LC50 (the source's name)
In short: as §1

SK-BR3 = conditions: Homo sapiens, SK-BR3, 48 hours exposure, SRB; for GI50 / IC (TGI): SK-BR-3, 48 h; for CC50: SK-BR-3, read-out: LC50 (the source's name)
In short: as §1

Structure (SMILES): COc1c(C)cc2c(c1O)[C@@H]1C3[C@@H]4SC[C@]5(NCCc6c5[nH]c5ccccc65)C(=O)COC[C@@H](c5c6c(c(C)c(OC(=O)OC(C)(C)C)c54)OCO6)N3[C@@H](C#N)[C@H](C2)N1C (stereo partly drawn) [Compound 57]
- GI50 (A549): 103 nM
- CC50 (A549): 12200 nM
- IC (TGI) (A549): 607 nM
- GI50 (DU145): 47.7 nM
- IC (TGI) (DU145): 1840 nM
- CC50 (DU145): 12200 nM
- TGI (HELA-APL): 2.03E−07 Molar
- GI50 (HELA-APL): 61.4 nM
- CC50 (HELA-APL): 850 nM
- TGI (HELA): 1.46E−07 Molar
- GI50 (HELA): 43.7 nM
- CC50 (HELA): 652 nM
- GI50 (HT29): 165 nM
- IC (TGI) (HT29): 1410 nM
- CC50 (HT29): 12200 nM
- GI50 (IGROV-ET): 394 nM
- IC (TGI) (IGROV-ET): 1150 nM
- CC50 (IGROV-ET): 12200 nM
- GI50 (IGROV): 71.8 nM
- IC (TGI) (IGROV): 460 nM
- CC50 (IGROV): 7430 nM
- GI50 (K562): 47.7 nM
- IC (TGI) (K562): 466 nM
- CC50 (K562): 12200 nM
- GI50 (LNCAP): 33.3 nM
- IC (TGI) (LNCAP): 71.7 nM
- CC50 (LNCAP): 23.2 nM
- GI50 (LOVO-DOX): 487 nM
- IC (TGI) (LOVO-DOX): 6700 nM
- CC50 (LOVO-DOX): 12200 nM
- GI50 (LOVO): 73 nM
- IC (TGI) (LOVO): 257 nM
- CC50 (LOVO): 905 nM
- GI50 (MEL-28): 64.7 nM
- IC (TGI) (MEL-28): 209 nM
- CC50 (MEL-28): 662 nM
- GI50 (PANC-1): 113 nM
- IC (TGI) (PANC-1): 662 nM
- CC50 (PANC-1): 12200 nM
- GI50 (SK-BR3): 67.6 nM
- IC (TGI) (SK-BR3): 313 nM
- CC50 (SK-BR3): 7990 nM

Structure (SMILES): C=COC(=O)Oc1c(C)c2c(c3c1[C@H]1SC[C@]4(NCCC5c6ccccc6NC54)C(=O)OC[C@@H]3N3C1[C@H]1c4c(cc(C)c(OC)c4OC(=O)OC=C)C[C@@H]([C@@H]3C#N)N1C)OCO2 (stereo partly drawn) [Compound 68]
- GI50 (A549): 28.3 nM
- CC50 (A549): 101 nM
- IC (TGI) (A549): 49.5 nM
- GI50 (DU145): 29.9 nM
- IC (TGI) (DU145): 86.5 nM
- CC50 (DU145): 10300 nM
- TGI (HELA-APL): 6.19E−08 Molar
- GI50 (HELA-APL): 37 nM
- CC50 (HELA-APL): 103 nM
- TGI (HELA): 6.03E−08 Molar
- GI50 (HELA): 32.5 nM
- CC50 (HELA): 112 nM
- GI50 (HT29): 317 nM
- IC (TGI) (HT29): 95.9 nM
- CC50 (HT29): 11700 nM
- GI50 (IGROV-ET): 30.8 nM
- IC (TGI) (IGROV-ET): 68.9 nM
- CC50 (IGROV-ET): 206 nM
- GI50 (IGROV): 21.7 nM
- IC (TGI) (IGROV): 61.6 nM
- CC50 (IGROV): 1090 nM
- GI50 (K562): 20.4 nM
- IC (TGI) (K562): 44.7 nM
- CC50 (K562): 97.5 nM
- GI50 (LNCAP): 11.5 nM
- IC (TGI) (LNCAP): 26.6 nM
- CC50 (LNCAP): 61.3 nM
- GI50 (LOVO-DOX): 112 nM
- IC (TGI) (LOVO-DOX): 743 nM
- CC50 (LOVO-DOX): 11700 nM
- GI50 (LOVO): 27.1 nM
- IC (TGI) (LOVO): 49.7 nM
- CC50 (LOVO): 91.3 nM
- GI50 (MEL-28): 7.52 nM
- IC (TGI) (MEL-28): 22.4 nM
- CC50 (MEL-28): 67.2 nM
- GI50 (PANC-1): 48.1 nM
- IC (TGI) (PANC-1): 125 nM
- CC50 (PANC-1): 11700 nM
- GI50 (SK-BR3): 29 nM
- IC (TGI) (SK-BR3): 60.9 nM
- CC50 (SK-BR3): 206 nM
